Results as given in patent US20190142953A1, “Dendrimer-Drug Conjugates, Hydrogel Compositions, and Methods” (Massachusetts Institute of Technology, priority 2016, published 2019).

Assays:
[1] = system: healthy mammary epithelial cells; assay: Cytocidal effect in healthy cells; format: cell-based; conditions: equivalent free doxorubicin concentration
Source text: The next question studied was whether conjugated doxorubicin still maintained its cytotoxic effect.

[2] = Release from dendrimer:dextran hydrogel scaffold; format: physicochemical
Source text: The hydrogel matrix included a 10% solid content PAMAM dendrimer, generation 5, with 75% of the amines of its surface groups oxidized to alcohols (i.e., 32 amines and 96 alcohols), and a 10% solid content dextran aldehyde (10 kDa weight average molecule weight, with 50% oxidation to aldehydes).
Free doxorubicin was released in approximately 6 days, owing to the interactions between amine groups in the drug and aldehyde groups in the dextran. When amines in the doxorubicin structure were blocked with aconitic anhydride, the drug was released rapidly through the large pores of the hydrogel in 48 hours.

[3] = In vivo organ distribution after systemic and local delivery; parameters: species or system mice
Procedure: An analysis was conducted of the organ distribution of both the dendritic pro-drugs and free doxorubicin after local and systemic administration. Fluorescently labelled dendritic pro-drugs of Example 5 or free drug were injected systemically and their distributions were assessed after 24 hours.

[4] = system: triple negative breast cancer (TNBC); assay: In vivo therapeutic efficacy, murine model of triple negative breast cancer
EGFR [5] = biological target: T1, EGFR (Homo sapiens, UniProt P00533); assay: EGF/EGFmp competition for the receptor, EGFR activation by Western Blot; format: cell-based; conditions: mix of EGF and peptide, EGFR-overexpressing cancer cells
T1 construct: endogenous in cells; host or cells: MDA-MB-468

EGFR [6] = biological target: T1, EGFR; assay: EGFR pathway activation (EGFR phosphorylation) by Western Blot; format: cell-based
Source text: EGFR signaling pathway is believed to induce growth, differentiation, migration, adhesion, and cell survival through various interacting signaling pathways. It is believed to be critical for the design of chemotherapeutic pro-drugs utilizing this receptor to ensure this pathway was not triggered, leading to further cancer cell proliferation and survival, which could counteract the effects of the chemotherapeutic drug.
Actin was used as an internal control in all gels.

[7] = local in hydrogel scaffold, 72-hour post-implantation

| blocking of EGF-mediated EGFR activation (EGFR [5]) | EGFR phosphorylation / pathway activation (EGFR [6]) | Compound | cell death [1] | time to release from hydrogel [2] | circulating level in blood ([3]; after local delivery) | level in blood (fluorescence) ([3]; after systemic administration) | accumulation in other organs [3, 7] | tumor accumulation, local therapy versus systemic administration [3, 7] | accumulation in other organs (spleen, heart, lungs, liver, kidneys) ([3]; systemic injection, 24 hours) | tumor shrinkage compared to untreated control ([4]; local in hydrogel, multiple doses (days 0, 11, 22), bioluminescence) | tumor reduction compared to untreated control ([4]; systemic administration) |
| --- | --- | --- | --- | --- | --- | --- | --- | --- | --- | --- | --- |
| – | – | COc1cccc2c1C(=O)c1c(O)c3c(c(O)c1C2=O)C[C@@](O)(C(=O)CO)C[C@@H]3O[C@H]1C[C@H](N)[C@H](O)[C@H](C)O1 [free doxorubicin, doxorubicin] | over 90% | approximately 6 days | No circulating drug or dendritic pro-drug were observed in the blood | not statistically different than that of the untreated control | no accumulation was observed in other organs | 5 times | no significant accumulation was observed in any other organ | 69% | did not exhibit significant tumor volume reduction |
| did not behave as an EGF antagonist | none were observed | NH2—CGGGGAEYLR-COOH (H-CGGGGAEYLR-OH) [EGFmp, EGF mimicking peptide modified with four glycine residues terminated with a cysteine] | – | – | – | – | – | – | – | – | – |
